Test results as given in US5155107A, “17β-substituted-4-aza-5α-androstan-3-one derivatives and process for their preparation” (Farmitalia Carlo Erba, priority 1990, dated 1992).
Like-named read-outs stand apart in the source and are kept apart here.

What was measured:
[1] = molecular target: T1, 5α-reductase (particulate fraction of human benign prostatic hypertrophy tissue) (Homo sapiens, UniProt P31213); assay: Inhibition of prostatic 5α-reductase in vitro; format: biochemical
T1 construct: homogenates of human benign prostatic hypertrophy tissue as the enzyme source; from tissue; host or cells: human benign prostatic hypertrophy tissue, 40,000×g particulate fraction (nuclei, microsomes, mitochondria)
T1 sequence (P31213 1-254): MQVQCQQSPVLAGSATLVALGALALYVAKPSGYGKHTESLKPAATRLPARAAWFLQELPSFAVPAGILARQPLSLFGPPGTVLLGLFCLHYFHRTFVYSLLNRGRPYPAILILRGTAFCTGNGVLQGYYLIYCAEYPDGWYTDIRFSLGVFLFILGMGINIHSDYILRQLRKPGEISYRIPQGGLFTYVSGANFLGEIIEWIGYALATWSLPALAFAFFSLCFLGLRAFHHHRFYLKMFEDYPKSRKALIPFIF
Description: For example, the inhibitory effect of the compounds of the invention on 5α-reductase was determined in vitro in comparison with progesterone taken as the reference compound, according to the procedure reported herebelow.
Inhibition of 5α-reductase was evaluated using the particulate fraction (containing nuclei, microsomes and mitochondria) from homogenates of human benign prostatic hypertrophy tissue as the enzyme source. The particulate fraction was prepared centrifuging prostate homogenate at 40,000×g. The resulting pellet, washed several times, was resuspended in buffer and stored at -80° C. in aliquots containing ≈10 mg protein/ml.
The assay for 5α-reductase was done in a final volume of 0.5 ml, containing 1 mM dithiothreitol, 40 mM TRIS-HCl buffer pH 5.0, 5 mM NADPH, 1 μM [4-^14 C]testosterone, 0.3 mg of prostate particulate fraction and various concentrations of the inhibitors. After 30 min incubation at 37° C. the reaction was terminated by addition of 1.5 ml diethyl ether and the organic phase was separated, evaporated under N2 and resuspended in ethyl acetate. Testosterone metabolites in this extract were separated in TLC on silica gel F 254 plates (Merck) using chloroform, acetone and n-hexane (2:1:2) as developing solvent system. Radioactivity on the plate was scanned and analyzed from quantitative plots printed by a TLC-analyzer (Berthold). The fractional 5α-reduction of testosterone was calculated by relating the ^14 C-radioactivity in the 5α-reduced metabolites (5α-dihydrotestosterone, 3α- and 3β-androstanediols) regions to the total radioactivity in the testosterone and 5α-reduced metabolites regions.
The concentration of each compound required to reduce control 5α-reductase by 50% (IC50) was determined by plotting % inhibition versus log of inhibitor concentration.
As an example, the potency of three representative compounds of the invention, namely 4-methyl-17β-[N-isopropyl-N-(N-isopropylcarbamoyl)carbamoyl]-4-aza-5α-androstan-3-one (Compound 1), 4-methyl-17β-[N-cyclohexyl-N-(N-cyclohexylcarbamoyl) carbamoyl-4-aza-5α-androstan-3-one (Compound 11) and 4-methyl-17β-[N-isopropyl-N-(N-isopropylthiocarbamoyl)carbamoyl-4-aza-5α-androstan-3-one (Compound 39) are reported in Table 1 in comparison with progesterone.

[2] = system: 5α-reductase of rat prostate; assay: Inhibition of prostate growth stimulated by testosterone propionate in castrated rats; format: in vivo; details: for Inhibition of prostate growth stimulated by testosterone propionate: 7 days, testosterone propionate 0.3 mg/kg/day s.c.
Description: The compounds of the invention were also tested for their in vivo potency in inhibiting 5α-reductase of rat prostate, according to the following procedure.
Prepuberal 21-day old male rat were castrated via scrotal incision in light ether anaesthesia.
Starting on the seventh day after orchiectomy, the rats were treated with testosterone propionate (0.3 mg/kg/day subcutaneously) for 7 consecutive days to stimulate prostate growth. The 5α-reductase inhibitors were given orally at various doses once daily for 7 days, together with the standard dose of testosterone propionate.
Thus, for example, in the above test the compound 1 of the present invention was compared with the well known 5α-reductase inhibitor 4-methyl-17β-N,N-diethyl-carbamoyl-4-methyl-4-aza-5α-androstan- 3-one, identified as 4-MA and described, e.g., in U.S. Pat. No. 4,377,584) giving the results reported in the following Table 2.

[3] = molecular target: T2, cytoplasmic androgen (rat prostate) receptors (Rattus norvegicus, UniProt P15207); assay: Rat prostate androgen receptor binding (inhibition of 3H-DHT binding); set-up: species or system Sprague-Dawley rats
T2 construct: Prostatic tissue, obtained from adrenalectomized and castrated Sprague-Dawley rats; from tissue; host or cells: prostate cytosol of adrenalectomized and castrated Sprague-Dawley rats
T2 sequence (P15207 1-902): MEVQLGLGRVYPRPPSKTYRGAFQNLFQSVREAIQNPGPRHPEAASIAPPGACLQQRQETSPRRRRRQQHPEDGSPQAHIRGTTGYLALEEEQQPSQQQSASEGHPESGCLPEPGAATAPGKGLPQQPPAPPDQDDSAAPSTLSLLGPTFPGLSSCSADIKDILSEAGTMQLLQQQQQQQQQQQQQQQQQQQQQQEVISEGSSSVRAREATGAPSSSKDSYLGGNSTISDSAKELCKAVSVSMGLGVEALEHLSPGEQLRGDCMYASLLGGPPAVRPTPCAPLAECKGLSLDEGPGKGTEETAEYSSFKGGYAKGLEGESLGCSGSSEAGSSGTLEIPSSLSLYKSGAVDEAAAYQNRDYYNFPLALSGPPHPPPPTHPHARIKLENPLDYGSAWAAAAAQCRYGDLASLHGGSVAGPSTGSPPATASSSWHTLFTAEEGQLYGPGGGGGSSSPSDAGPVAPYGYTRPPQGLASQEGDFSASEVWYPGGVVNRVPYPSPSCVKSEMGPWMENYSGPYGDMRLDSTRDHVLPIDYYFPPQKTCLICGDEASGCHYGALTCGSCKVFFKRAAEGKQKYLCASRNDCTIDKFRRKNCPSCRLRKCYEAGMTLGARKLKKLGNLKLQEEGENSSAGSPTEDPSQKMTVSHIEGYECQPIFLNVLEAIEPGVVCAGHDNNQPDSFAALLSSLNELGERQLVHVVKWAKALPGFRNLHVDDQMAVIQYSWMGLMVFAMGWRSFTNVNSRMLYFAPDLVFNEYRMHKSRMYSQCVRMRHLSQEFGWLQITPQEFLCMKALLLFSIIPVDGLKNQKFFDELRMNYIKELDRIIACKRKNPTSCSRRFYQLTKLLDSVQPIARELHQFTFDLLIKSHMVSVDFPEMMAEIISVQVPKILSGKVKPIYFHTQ
Description: For their use in androgen- dependent conditions, the 5α-reductase inhibitors, should have a very low intrinsic androgenic activity, which can be shown by the binding affinity to the androgen receptor.
A low binding affinity to the androgen receptor is therefore desirable in a 5α-reductase inhibitor for use in the treatment of androgen dependent conditions.
Binding affinity to cytoplasmic androgen (rat prostate) receptors was determined by standard dextran-coated absorption technique (Raynaud J. P. et al., J. Steroid. Biochem. 6: 615-622, 1975).
Prostatic tissue, obtained from adrenalectomized and castrated Sprague-Dawley rats, was homogenized in 10 mM Tris HCl pH 7.4, containing 1.5 mM EDTA and 1 mM dithiothreitol in motor driven tissue grinders. The homogenate was centrifuged at 10,000×g for 1 h at 4° C.
Aliquots of cytosol 00.2 ml) were incubated for 2 hours at 0° C. with various concentrations of the test compounds, in duplicate, and a fixed amount of ^3 H-dihydrotesterone (DHT) final concentration 1 nM in 0.4 ml of incubation volume).
Then, free radioactivity was absorbed on 0.2 ml of dextran-coated charcoal suspension and after centrifugation at 1,500×g for 10 min., the bound radioactivity in the supernatant was determined by liquid scintillation in Rialuma.
The concentration of each compound required to reduce specific ^3 H-DHT binding by 50% (IC50) was determined from a plot of bound radioactivity versus log of competitor concentration.
In the above test the Compound 1 of the present invention was compared with the same above identified reference compound 4-MA and the obtained results are reported in the following Table 3.

[4] = human BPH particulate fraction, 1 μM [4-14C]testosterone, pH 5.0, 30 min, 37° C., read-out: Inhibition of prostatic 5α-reductase IC50

With `CC(C)NC(=O)N(C(=O)[C@H]1CC[C@H]2[C@@H]3CC[C@H]4N(C)C(=O)CC[C@]4(C)[C@H]3CC[C@]12C)C(C)C` [Compound 1, 4-methyl-17β-[N-isopropyl-N-(N-isopropylcarbamoyl)carbamoyl]-4-aza-5α-androstan-3-one] the IC50 [1, 4] was 0.055 µM, the “Inhibition of prostate growth stimulated by testosterone propionate” value (from here on “Inhibition of prostate growth stimulated”) ([2]; 3 mg/kg/day p.o.) was 33% and the “Inhibition of prostate growth stimulated” value ([2]; 10 mg/kg/day p.o.) was 55%. For the same compound, the IC50 [3] was 150 µM, the “selectivity versus androgen receptor binding” value ([3]; Compound 1 versus reference compound 4-MA) was “more selective than the reference compound 4-MA” and the “displacement of DHT from the prostatic androgen receptor” value ([3]; Table 3) was “displaces DHT from the prostatic androgen receptor only at a very high concentration”.

`CC(C)NC(=S)N(C(=O)[C@H]1CC[C@H]2[C@@H]3CC[C@H]4N(C)C(=O)CC[C@]4(C)[C@H]3CC[C@]12C)C(C)C` [Compound 39, 4-methyl-17β-[N-isopropyl-N-(N-isopropylthiocarbamoyl)carbamoyl]-4-aza-5α-androstan-3-one] was tested, and the IC50 [1, 4] was 0.011 µM.

In the case of `CN1C(=O)CC[C@]2(C)[C@H]3CC[C@]4(C)[C@@H](C(=O)N(C(=O)NC5CCCCC5)C5CCCCC5)CC[C@H]4[C@@H]3CC[C@@H]12` [Compound 11, 4-methyl-17β-[N-cyclohexyl-N-(N-cyclohexylcarbamoyl)carbamoyl]-4-aza-5α-androstan-3-one], the IC50 [1, 4] is reported as 0.041 µM.

For `CCN(CC)C(=O)[C@H]1CC[C@H]2[C@@H]3CC[C@H]4N(C)C(=O)CC[C@]4(C)[C@H]3CC[C@]12C` [Compound 4-MA, 4-methyl-17β-N,N-diethyl-carbamoyl-4-methyl-4-aza-5α-androstan-3-one], the “Inhibition of prostate growth stimulated” value ([2]; 3 mg/kg/day p.o.) was 1%, the “Inhibition of prostate growth stimulated” value ([2]; 10 mg/kg/day p.o.) was 0% and the “Inhibition of prostate growth stimulated” value ([2]; 30 mg/kg/day p.o.) was 49%. The “in vivo effect on the hypertrophic response to testosterone propionate” value ([2]; same dose, 10 mg/kg/day oral) was “completely ineffective”, the “displaces DHT at a concentration lower than Compound 1 (fold)” value ([3]; 4-MA versus Compound 1) was 60 times lower and the IC50 ([3]; rat prostate cytosol, 1 nM 3H-DHT, 2 hours, 0° C., read-out: Inhibition of DHT binding IC50) was 2.5 µM.

For `CC(=O)[C@H]1CC[C@H]2[C@@H]3CCC4=CC(=O)CC[C@]4(C)[C@H]3CC[C@]12C` [Progesterone, progesterone, reference compound], the IC50 [1] was 1.98 µM.
